This note sets out measurements from PubChem BioAssay AID192 (DTP/NCI, 2004).

Values joined by “and” are separate entries in the source; they are usually repeats but may differ in a detail not shown here. Equal values may be shown once. Inconclusive results and toxic doses are left out.

The assay concerns BDF1 mice, B16 melanoma ip, median survival T/C. Put plainly: NCI In Vivo Anticancer Drug Screen. Data for tumor model B16 Melanoma (intraperitoneal) in B6D2F1 (BDF1) mice. To be noted: endpoint: median survival time, higher = longer survival. An outline of the steps:
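Each result divides a survival or tumor-size measurement in the compound-treated group by the same measurement in the vehicle group.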

Setting [1] is: dose: 12.5 mg/kg/injection, schedule: Q01DX009 (ip), vehicle: saline with Tween-80.
Setting [2] is: dose: 25.0 mg/kg/injection, schedule: Q01DX009 (ip), vehicle: saline with Tween-80.
[3] abbreviates: dose: 50.0 mg/kg/injection, schedule: Q01DX009 (ip), vehicle: saline with Tween-80.
Setting [4] is: dose: 100.0 mg/kg/injection, schedule: Q01DX009 (ip), vehicle: saline with Tween-80.
Setting [5] is: dose: 12.5 mg/kg/injection, schedule: Q01DX009 (ip), vehicle: saline.
Where [6] appears, read: dose: 25.0 mg/kg/injection, schedule: Q01DX009 (ip), vehicle: saline.
The mark [7] stands for this setting: dose: 50.0 mg/kg/injection, schedule: Q01DX009 (ip), vehicle: saline.
[8] abbreviates: dose: 100.0 mg/kg/injection, schedule: Q01DX009 (ip), vehicle: Klucel (hydroxypropylcellulose) (HPC).
Setting [9] is: dose: 50.0 mg/kg/injection, schedule: Q01DX009 (ip), vehicle: Klucel (hydroxypropylcellulose) (HPC).
Where [10] appears, read: dose: 200.0 mg/kg/injection, schedule: Q01DX009 (ip), vehicle: saline with Tween-80.
Where [11] appears, read: dose: 400.0 mg/kg/injection, schedule: Q01DX009 (ip), vehicle: saline with Tween-80.
[12] abbreviates: dose: 6.25 mg/kg/injection, schedule: Q01DX009 (ip), vehicle: saline with Tween-80.

Take `ClC=P(c1ccccc1)(c1ccccc1)c1ccccc1`: the T/C under setting [1] is 90 % of control; the T/C under setting [2] was 90 % of control; the T/C (dose: 33.0 mg/kg/injection, schedule: Q04DX003 (ip), vehicle: saline with Tween-80) is 91 % of control; the T/C under setting [3] was 92 % of control and 95 % of control; the T/C (dose: 50.0 mg/kg/injection, schedule: Q04DX003 (ip), vehicle: saline with Tween-80) is 152 % of control; the T/C (dose: 75.0 mg/kg/injection, schedule: Q04DX003 (ip), vehicle: saline with Tween-80) is 86 % of control.
As for `CC(C)(C)c1ccc(C(=O)C2CC2)cc1`, the T/C under setting [2] was 94 % of control, the T/C under setting [3] is 99 % of control and the T/C under setting [4] was 95 % of control.
With `OC[CH2][Hg][Br]`, the T/C by setting is: (dose: 0.37 mg/kg/injection, schedule: Q01DX009 (ip), vehicle: saline) 97 % of control; (dose: 0.75 mg/kg/injection, schedule: Q01DX009 (ip), vehicle: saline) 94 % of control; (dose: 1.5 mg/kg/injection, schedule: Q01DX009 (ip), vehicle: saline) 94 % of control; (dose: 3.0 mg/kg/injection, schedule: Q01DX009 (ip), vehicle: saline) 93 % of control.
For `C#CCC1(OC(N)=O)CCCCC1`, the T/C is 99 % of control (dose: 6.25 mg/kg/injection, schedule: Q04DX003 (ip), vehicle: Klucel (hydroxypropylcellulose) (HPC)); 104 % of control under setting [5]; 97 % of control (dose: 12.5 mg/kg/injection, schedule: Q04DX003 (ip), vehicle: Klucel (hydroxypropylcellulose) (HPC)); 100 % of control under setting [6]; 97 % of control (dose: 25.0 mg/kg/injection, schedule: Q04DX003 (ip), vehicle: Klucel (hydroxypropylcellulose) (HPC)); 89 % of control under setting [7]. The T/C runs as follows: (dose: 50.0 mg/kg/injection, schedule: Q04DX003 (ip), vehicle: Klucel (hydroxypropylcellulose) (HPC)) 98 % of control; (dose: 100.0 mg/kg/injection, schedule: Q01DX009 (ip), vehicle: saline) 87 % of control; (dose: 100.0 mg/kg/injection, schedule: Q04DX003 (ip), vehicle: Klucel (hydroxypropylcellulose) (HPC)) 103 % of control; (dose: 200.0 mg/kg/injection, schedule: Q04DX003 (ip), vehicle: Klucel (hydroxypropylcellulose) (HPC)) 95 % of control.
Turning to `Nc1n[nH]c(C(=O)O)n1`, the T/C runs as follows: under setting [8], 97 % of control; (dose: 200.0 mg/kg/injection, schedule: Q01DX009 (ip), vehicle: Klucel (hydroxypropylcellulose) (HPC)) 97 % of control; (dose: 400.0 mg/kg/injection, schedule: Q01DX009 (ip), vehicle: Klucel (hydroxypropylcellulose) (HPC)) 97 % of control.
On to `C=C1C(=O)O[C@@H]2[C@H](O)[C@@H](C)[C@@H]3C=CC(=O)[C@@]3(C)[C@@H](OC(=O)/C(C)=C/C)[C@H]12`, for which the T/C runs as follows: (dose: 1.5 mg/kg/injection, schedule: Q01DX009 (ip), vehicle: other) 101 % of control; (dose: 1.5 mg/kg/injection, schedule: Q01DX009 (ip), vehicle: saline + alcohol) 92 % of control; (dose: 3.0 mg/kg/injection, schedule: Q01DX009 (ip), vehicle: other) 98 % of control; (dose: 3.0 mg/kg/injection, schedule: Q01DX009 (ip), vehicle: saline + alcohol) 96 % of control; (dose: 6.0 mg/kg/injection, schedule: Q01DX009 (ip), vehicle: other) 99 % of control; (dose: 6.0 mg/kg/injection, schedule: Q01DX009 (ip), vehicle: saline + alcohol) 96 % of control.
With `C[n+]1c(-c2cccc(OCCOCCOc3cccc(-c4c5cc(N)ccc5c5ccc(N)cc5[n+]4C)c3)c2)c2cc(N)ccc2c2ccc(N)cc21`, the T/C (dose: 0.5 mg/kg/injection, schedule: Q01DX009 (ip), vehicle: water) is 110 % of control.
Turning to `CCc1cnccc1C`, the T/C (dose: 25.0 mg/kg/injection, schedule: Q01DX009 (ip), vehicle: Klucel (hydroxypropylcellulose) (HPC)) is 100 % of control and the T/C under setting [9] is 112 % of control.
With `CCOC(=O)CC(C)(N)NC(N)=O` (stereo not drawn), the T/C reads like this: under setting [4], 92 % of control; under setting [10], 95 % of control; under setting [11], 90 % of control.
For the compound `CCN(CC)Cc1ncccc1O`, the T/C under setting [9] is 107 % of control and the T/C under setting [8] is 103 % of control.
For `O=[N+]([O-])/C(=C/c1ccccc1)c1ccccc1`, the T/C was 104 % of control under setting [12], 95 % of control under setting [1] and 112 % of control under setting [2].
With `COc1cccc2c1C(=N)c1c(O)c3c(c(O)c1C2=O)C[C@@](O)(C(=O)CO)C[C@@H]3OC1CC(N)C(O)C(C)O1` (stereo partly drawn), the T/C by setting is: (dose: 25.0 mg/kg/injection, schedule: Q01DX001 (ip), vehicle: water) 230 % of control; (dose: 50.0 mg/kg/injection, schedule: Q01DX001 (ip), vehicle: water) 292 % of control; (dose: 100.0 mg/kg/injection, schedule: Q01DX001 (ip), vehicle: water) 307 % of control.
As to `COc1ccc2nc3ccccc3c(NCCNCCO)c2c1`, the T/C (dose: 10.0 mg/kg/injection, schedule: Q01DX009 (ip), vehicle: saline) was 123 % of control.
Take `N#CSCc1ccccc1Cl`: the T/C is 89 % of control (dose: 1.56 mg/kg/injection, schedule: Q04DX003 (ip), vehicle: saline); 105 % of control (dose: 3.13 mg/kg/injection, schedule: Q01DX009 (ip), vehicle: saline with Tween-80); 89 % of control (dose: 3.13 mg/kg/injection, schedule: Q04DX003 (ip), vehicle: saline); 105 % of control under setting [12]; 88 % of control (dose: 6.25 mg/kg/injection, schedule: Q04DX003 (ip), vehicle: saline with Tween-80); 86 % of control (dose: 6.25 mg/kg/injection, schedule: Q04DX003 (ip), vehicle: saline). Also, the T/C under setting [1] was 114 % of control.
On to `CC#CCOCC(O)CO` (stereo not drawn), for which the T/C reads like this: (dose: 12.5 mg/kg/injection, schedule: Q01DX009 (ip), vehicle: water) 105 % of control; (dose: 25.0 mg/kg/injection, schedule: Q01DX009 (ip), vehicle: water) 93 % of control; (dose: 50.0 mg/kg/injection, schedule: Q01DX009 (ip), vehicle: water) 113 % of control; (dose: 100.0 mg/kg/injection, schedule: Q01DX009 (ip), vehicle: water) 114 % of control.
Turning to `Cc1c([N+](=O)[O-])cc2c(c1[N+](=O)[O-])C(C)(C)CC2(C)C`, the T/C under setting [4] was 95 % of control, the T/C under setting [10] is 86 % of control and the T/C under setting [11] is 90 % of control.
Regarding `Cn1c(N)c(N=Nc2ccccc2Cl)c(=O)n(C)c1=O`, the T/C by setting is: (dose: 6.25 mg/kg/injection, schedule: Q01DX009 (ip), vehicle: saline) 110 % of control; under setting [5], 105 % of control; under setting [6], 104 % of control; under setting [3], 86 % of control; under setting [7], 110 % of control.
Consider `CCCCCc1cc(O)c2c(c1)OC(C)(C)c1ccc(C)cc1-2`, for which the T/C by setting is: (dose: 64.0 mg/kg/injection, schedule: Q01DX009 (ip), vehicle: saline) 115 % of control; (dose: 128.0 mg/kg/injection, schedule: Q01DX009 (ip), vehicle: saline) 110 % of control; (dose: 256.0 mg/kg/injection, schedule: Q01DX009 (ip), vehicle: saline) 112 % of control; (dose: 512.0 mg/kg/injection, schedule: Q01DX009 (ip), vehicle: saline) 88 % of control.
Regarding `O=C1CC(c2ccc(OCN(CCCl)CCCl)cc2)CC(=O)C1CN(CCCl)CCCl` (stereo not drawn), the T/C reads like this: (dose: 0.5 mg/kg/injection, schedule: Q01DX009 (ip), vehicle: Klucel (hydroxypropylcellulose) (HPC)) 97 % of control; (dose: 1.0 mg/kg/injection, schedule: Q01DX009 (ip), vehicle: Klucel (hydroxypropylcellulose) (HPC)) 100 % of control; (dose: 2.0 mg/kg/injection, schedule: Q01DX009 (ip), vehicle: Klucel (hydroxypropylcellulose) (HPC)) 100 % of control; (dose: 4.0 mg/kg/injection, schedule: Q01DX009 (ip), vehicle: Klucel (hydroxypropylcellulose) (HPC)) 99 % of control; (dose: 8.0 mg/kg/injection, schedule: Q01DX009 (ip), vehicle: Klucel (hydroxypropylcellulose) (HPC)) 104 % of control.
As to `CC(C)(C)C(=O)CC(=O)C(F)(F)C(F)(F)C(F)(F)F.[Ag]`, the T/C is 97 % of control under setting [12], 94 % of control under setting [1] and 86 % of control under setting [2].
